Measured values taken from patent US20070161547A1, “Modulation of survivin expression” (priority 2003, published 2007).
Read-outs that look alike come from different tables or passages of the source. d = 2'-deoxy (DNA)

Columns and labels:
[1] = tested on: survivin protein; test: IC50 of dsRNA for survivin protein, quantitative Western blot ("W"); assay type: cell-based, human; settings: for IC50: W (Western blot), HeLa cells
Method: Western blot analysis (immunoblot analysis) is carried out using standard methods. Cells are harvested 16-20 hours after oligonucleotide treatment, washed once with PBS, suspended in Laemmli buffer (100 μl/well), boiled for 5 minutes and loaded on a 16% SDS-PAGE gel. Gels are run for 1.5 hours at 150 V, and transferred to membrane for western blotting. Appropriate primary antibody directed to survivin is used, with a radiolabelled or fluorescently labeled secondary antibody directed against the primary antibody species. Bands are visualized using a PHOSPHORIMAGER™ (Molecular Dynamics, Sunnyvale, Calif.).
(§1) For western blot analysis, cells are plated in 10 cm tissue culture dishes (Falcon, #3003) at a density of 7.5×10^5 cells/dish. For RT-PCR analysis, 96-well plates (Corning Incorporated, #3596) are plated with 1×10^4 cells/well. Lipofectin (GIBCO/Invitrogen) transfection reagent is used at a concentration of 3 ul/ml OPTIMEM reduced serum medium (Gibco/Invitrogen)/100 nM siRNA duplex. Lipofectin reagent is incubated with OPTIMEM medium for 30 minutes prior to the addition of siRNA. The desired amount of siRNA is added and mixed. Further 1:1 dilutions are performed in OPTIMEM. Cells are washed twice with 1× phosphate buffered saline and then treated with the siRNA/Lipofectin mixture in OPTIMEM. After a 4 hr incubation period, OPTIMEM medium is replaced with complete growth medium. Cells are harvested after additional 16-20 hrs for Western blot or RT-PCR analysis.
At the end of the incubation period culture medium is removed and cells are washed twice with PBS. Cells are lysed in RIPA buffer (20 mM Tris-HCl, pH 7.4, 5 mM EDTA, 50 mM NaCl, 10 mM Sodium Pyrophosphate, 50 mM Sodium Fluoride, and 1% Nonidet P40) plus Complete™ Mini protease inhibitor tablets (Roche, #1836153) and 1 mM Sodium orthovanadate (Sigma) by directly adding buffer to the plate. Lysates are collected by scrapping, transferred to microfuge tubes and cleared from the cellular debris by centrifugation at 14,000 rpm for 30 minutes at 4° C. Protein concentrations are determined using BCA protein assay yeagents (Pierce). Total cellular protein is subjected to SDS-PAGE and transferred onto Immobilon-P membranes (Millipore, #IPVHO91). Membranes are probed with primary antibodies to survivin (R&D Systems, #AF886) and to β-Actin (Sigma, #A5441). Horseradish peroxidase linked Anti-rabbit Ig, and anti-mouse Ig, antibodies (Pharmacia) are used as secondary antibodies. Antigen-antibody complexes are visualized by incubation of membrane in SuperSigmal West Pico chemiluminescence reagents (Pierce) for 5 minutes followed by capturing of the chemiluminescence using Fluor-S imager (Biorad) equipped with the cool CCD camera. The protein bands of interest for each sample are quantified using Quantity One software (Biorad). The percentage inhibition for each samples are calculated by comparing the survivin/Actin protein ratio for the sample to survivin/Actin protein ratio for the untreated control. The IC50 is derived from the non-linear regression analysis of the percentage inhibition data using GraphPad Prism software (GraphPad Software).
The constructs tested comprise the antisense strand in the 5′-3′ orientation, and the sense strand in the 5′ to 3′ orientation, In Table 15, “D” is dose response (mRNA levels) and “W” is Western blot. All internucleoside linkages are phosphodiester unless otherwise noted by a lowercase “s” indicating a phosphorothioate linkage.

[2] = tested on: human survivin mRNA; test: IC50 of dsRNA for survivin mRNA, dose response by quantitative RT-PCR ("D"); assay type: cell-based
Method: Representative parameters that can be studied include, for example, translation of survivin mRNAs or survivin protein synthesis; effect on surrogate markers; or any other parameter that is indicative of potential dsRNA therapeutic effectiveness that can be conveniently measured in vitro.
as §1
Total RNA is isolated using RNeasy® 96 kit according to recommended protocol (Qiagen). Briefly, cells are washed with 200 ul PBS after removal of growth medium. Following washing, 100 μl buffer RLT is added, plate is shaken vigorously for about 20 seconds. To each well 100 μl 70% ethanol are added and mixed by pipetting up and down three times. Samples are then applied into the wells of the RNeasy 96 plate placed in the QIAvac top base of the QIAvac 96 manifold, which is attached to a vacuum source. Vacuum is applied for 30 seconds or until transfer is complete. To each well 80 μl of DNase I incubation mix (20 mM Tris-HCl, pH 8.4, 2 mM MgCl2, 50 mM KCl and 225 Units/ml DNase I from Invitrogen) is added and incubated at room temperature for 30 minutes. Buffer RW1 (1 ml/well) is added and the vacuum is applied for 30 seconds. Buffer RPE (1 ml/well) is added to each well and vacuum is applied for 30 seconds. Washing steps with buffer RW1 and RPE1 are repeated once more. The plate is then removed from the manifold and blotted dry on paper towels. The plate is placed back in the QIAvac manifold and the vacuum is applied for 10 minutes. To elute RNA 30 μl of RNase-free water is added directly onto the membrane of each well, incubated for 1 minutes and vacuum is applied for 30 seconds. In order to maximize the recovery of total RNA the elution step is repeated with additional 30 μl/well RNase-free water.
Quantitation of survivin and GAPDH mRNA levels is determined by real-time quantitative RT-PCR using the ABI PRISM® 7900 Sequence Detection System (Applied Biosystems). RT-PCR reactions are carried out by adding 15 ul of TaqMan One Step PCR Master Mix (Applied Biosystems, #4309169) reagents (containing 100 nM each of forward primer and reverse primer, and 200 nM probe) to 96-well plates with 10 μl total RNA. For human survivin, the forward PCR primer is: 5′[…]3′ (SEQ ID NO: 186), and the reverse primer is: 5′[…]3′ (SEQ ID NO: 187). The survivin TaqMan® probe used is 5′(FAM)[…]3′ (SEQ ID NO: 188) (Biosearch Technologies, Inc.). This primer-probe set, designed to SEQ ID No 14 was used for all experiments in Examples 15 to the end. For human GAPDH, TaqMan GAPDH Control Reagent Kit is used (Applied Biosystems, #402869). The percentage inhibition for each samples are calculated by comparing the survivin/GAPDH mRNA ratio for the sample to survivin/GAPDH mRNA ratio for the untreated control. The IC50 is derived from the non-linear regression analysis of the percentage inhibition data using GraphPad Prism software (GraphPad Software).
The constructs tested comprise the antisense strand in the 5′-3′ orientation, and the sense strand in the 5′ to 3′ orientation, In Table 15, “D” is dose response (mRNA levels) and “W” is Western blot. […]

[3] = Stability of siRNA constructs in mouse plasma, capillary gel electrophoresis; assay type: in vitro ADME; settings: for Stability (t ½ in hours): Table 17, 25% mouse plasma, 37° C., pseudo first-order half-life of intact siRNA duplex
Method: Intact duplex RNA was analyzed from diluted mouse-plasma using an extraction and capillary electrophoresis method similar to those previously described (Leeds, J. M., et al., 1996, Anal. Biochem., 235, 36-43; Geary, R. S., et al., 1999, Anal. Biochem., 274, 241-248. Heparin-treated mouse plasma, from 3-6 month old female Balb/c mice (Charles River Labs) was thawed from −80° C. and diluted to 25% (v/v) with phosphate buffered saline (140 mM NaCl, 3 mM KCl, 2 mM potassium phosphate, 10 mM sodium phosphate). Approximately 10 nmol of pre-annealed siRNA, at a concentration of 100 μM, was added to the 25% plasma and incubated at 37° C. for 0, 15, 30, 45, 60, 120, 180, 240, 360, and 420 minutes. Aliquots were removed at the indicated time, treated with EDTA to a final concentration of 2 mM, and placed on ice at 0° C. until analyzed by capillary gel electrophoresis (Beckman P/ACE MDQ-UV with eCap DNA Capillary tube). The area of the siRNA duplex peak was measured and used to calculate the percent of intact siRNA remaining. Adenosine triphosphate (ATP) was added at a concentration of 2.5 mM to each injection as an internal calibration standard. A zero time point was taken by diluting siRNA in phosphate buffered saline followed by capillary electrophoresis. Percent intact siRNA was plotted against time, allowing the calculation of a pseudo first-order half-life.

[4] = Table 16, cell line not given, read-out: IC50 (nM) mRNA, dsRNA to human survivin

Q: Which IC50 [1] does the source give for “339055_339085 (antisense AGUCCACACUCAGGACUGUG; sense CACAGUCCUGAGUGUGGACU; siRNA; unmodified RNA)” here?
A: ≥ 100 nM

Q: Which IC50 [1] does the source give for “339057_339087 (antisense CAGGGACUCUGUCUCCAUUC; sense GAAUGGAGACAGAGUCCCUG; siRNA; unmodified RNA)” here?
A: ≥ 100 nM

Q: Which IC50 [1] does the source give for “339059_339089 (antisense GCUAUUCUGUGAAUUAACAA; sense UUGUUAAUUCACAGAAUAGC; siRNA; unmodified RNA)” here?
A: 6.41 nM

Q: With “339062_339092 (antisense UCCACCUGAAGUUCACCCCG; sense CGGGGUGAACUUCAGGUGGA; siRNA; unmodified RNA)” as the substance, how does the IC50 ([2]; D (dose response, mRNA levels), HeLa cells, read-out: IC50) read?
A: 1.8 nM

Q: What about the IC50 [1] of the same substance?
A: 65.2 nM

Q: Which IC50 [1] does the source give for “339063_339093 (antisense AAGGAGUAUCUGCCAGACGC; sense GCGUCUGGCAGAUACUCCUU; siRNA; unmodified RNA)” here?
A: 6.2 nM

Q: Which IC50 [1] does the source give for “339064_339094 (antisense UAAUCACACAGCAGUGGCAA; sense UUGCCACUGCUGUGUGAUUA; siRNA; unmodified RNA)” here?
A: 5.45 nM

Q: For “339066_339096 (antisense AAAGGAUUUAGGCCACUGCC; sense GGCAGUGGCCUAAAUCCUUU; siRNA; unmodified RNA)”, which IC50 [1] is on record?
A: 1.72 nM

Q: With “Compound U17: canonical siRNA targeted to human survivin, two deoxythymidines at 3' end of each strand (Table 14) (antisense GGAGAUCAACAUUUUCAAA; sense UUUGAAAAUGUUGAUCUCC; RNA, 3' dTdT, backbone not given here)” as the substance, how does the “activity in quantitative RT-PCR analysis” value ([2]; in words) read?
A: potent activity

Q: And the “activity in Western blot analysis” value ([1]; in words)?
A: potent activity

Q: What does the source list for “ISIS 353537_343868: dsRNA duplex: antisense 353537 (4'-thio), sense 343868 (unmodified) (antisense UUUGAAAAUGUUGAUCUCC; sense GGAGAUCAACAUUUUCAAA; 4'-thio antisense, chemistry not fully specified)”?
A: IC50 [2, 4]: 0.18 nM; Stability (t ½ in hours) [3]: 3 h

Q: Which IC50 [2, 4] does the source give for “ISIS 355713_355714: blunt-ended siRNA duplex, alternating 2'-O-methyl/2'-fluoro in opposing register: antisense 355713, sense 355714 (antisense UUUGAAAAUGUUGAUCUCC; sense GGAGAUCAACAUUUUCAAA; chemistry not fully specified)” here?
A: 0.06 nM

Q: What about the “Stability (t ½ in hours)” value [3] of the same substance?
A: >4 h

Q: And the “stability of construct in serum (mouse plasma)” value ([3]; in words)?
A: remains relatively unchanged and is stable in serum
